Test results published in patent US11752155B2, “Treatment of autism spectrum disorders, obsessive-compulsive disorder and anxiety disorders” (Rugen Holdings (Cayman) Limited, priority 2016, dated 2023).
Where a name gives a salt, the structure may show the parent alone. Read-outs that look alike come from different tables or passages of the source. Each block holds one compound with its values, some of them ahead of it.

Legend:
[1] = system: wild type mice (male NMRI); assay: Marble Burying Test in wild type mice; format: in vivo, mouse; conditions: Mus musculus, ip, read-out: Percent Change in marbles buried relative to vehicle
Experimental: Animals. Male NMRI mice (20-30 g body weight) were obtained from Janvier Labs (Le Genest-Saint Isle, France) and allowed to acclimate to the animal facility for at least 5 days. Twelve mice were studied per treatment group.
Compound formulation. The test compounds were prepared in a vehicle of 0.5% DMSO and 4% HP-β-CD, and administered orally (PO) or IP. The test compounds or vehicle were administered 20 minutes before the behavioral test described below. Clobazam (8 mg/kg IP), administered 30 minutes before the test, was used as the positive reference compound.
Clobazam was dispersed in 0.2% hydroxypropylmethylcellulose (HPMC) in physiological saline. Dosing volume was 10 mL/kg.
Testing procedure. The Marble Burying Test was conducted as previously described by Broekkamp et al. (Eur. J. Pharmacol. 1986, 126:223-229). Mice exposed to small novel objects (marbles) will bury them in the sawdust floor covering. Anxiolytics decrease the number of marbles buried at non-sedating doses. Mice were individually placed in transparent plastic cages (33×21×18 cm) with 5 cm of sawdust on the floor and 25 marbles grouped in the center of the cage. The cage was covered with an inverted plastic cage. Each test cage, together with the marbles, was impregnated with mouse odor before-hand by leaving 10 mice in the cage for 15 minutes. These mice then played no further role in the experiment. The number of marbles covered by sawdust (⅔ or more) was counted at the end of the 30-minute test. The test was performed blind (compounds versus vehicle).
Statistical analyses. Data were analyzed by comparing test compound-treated groups with the vehicle control group using the Kruskal-Wallis test followed by post-hoc Mann-Whitney U tests. Data comparing the reference compound with the vehicle were analyzed using the Mann-Whitney U test. A p value<0.05 was considered significant.

[2] = molecular target: human NR1/NR2B (Homo sapiens (Human), UniProt Q05586+Q13224); assay: NR2B antagonist activity: calcium influx (Fluo-4) assay in HEK293 cells; format: cell-based
human NR1/NR2B, sequence (Q13224 27-1484, other chains not shown): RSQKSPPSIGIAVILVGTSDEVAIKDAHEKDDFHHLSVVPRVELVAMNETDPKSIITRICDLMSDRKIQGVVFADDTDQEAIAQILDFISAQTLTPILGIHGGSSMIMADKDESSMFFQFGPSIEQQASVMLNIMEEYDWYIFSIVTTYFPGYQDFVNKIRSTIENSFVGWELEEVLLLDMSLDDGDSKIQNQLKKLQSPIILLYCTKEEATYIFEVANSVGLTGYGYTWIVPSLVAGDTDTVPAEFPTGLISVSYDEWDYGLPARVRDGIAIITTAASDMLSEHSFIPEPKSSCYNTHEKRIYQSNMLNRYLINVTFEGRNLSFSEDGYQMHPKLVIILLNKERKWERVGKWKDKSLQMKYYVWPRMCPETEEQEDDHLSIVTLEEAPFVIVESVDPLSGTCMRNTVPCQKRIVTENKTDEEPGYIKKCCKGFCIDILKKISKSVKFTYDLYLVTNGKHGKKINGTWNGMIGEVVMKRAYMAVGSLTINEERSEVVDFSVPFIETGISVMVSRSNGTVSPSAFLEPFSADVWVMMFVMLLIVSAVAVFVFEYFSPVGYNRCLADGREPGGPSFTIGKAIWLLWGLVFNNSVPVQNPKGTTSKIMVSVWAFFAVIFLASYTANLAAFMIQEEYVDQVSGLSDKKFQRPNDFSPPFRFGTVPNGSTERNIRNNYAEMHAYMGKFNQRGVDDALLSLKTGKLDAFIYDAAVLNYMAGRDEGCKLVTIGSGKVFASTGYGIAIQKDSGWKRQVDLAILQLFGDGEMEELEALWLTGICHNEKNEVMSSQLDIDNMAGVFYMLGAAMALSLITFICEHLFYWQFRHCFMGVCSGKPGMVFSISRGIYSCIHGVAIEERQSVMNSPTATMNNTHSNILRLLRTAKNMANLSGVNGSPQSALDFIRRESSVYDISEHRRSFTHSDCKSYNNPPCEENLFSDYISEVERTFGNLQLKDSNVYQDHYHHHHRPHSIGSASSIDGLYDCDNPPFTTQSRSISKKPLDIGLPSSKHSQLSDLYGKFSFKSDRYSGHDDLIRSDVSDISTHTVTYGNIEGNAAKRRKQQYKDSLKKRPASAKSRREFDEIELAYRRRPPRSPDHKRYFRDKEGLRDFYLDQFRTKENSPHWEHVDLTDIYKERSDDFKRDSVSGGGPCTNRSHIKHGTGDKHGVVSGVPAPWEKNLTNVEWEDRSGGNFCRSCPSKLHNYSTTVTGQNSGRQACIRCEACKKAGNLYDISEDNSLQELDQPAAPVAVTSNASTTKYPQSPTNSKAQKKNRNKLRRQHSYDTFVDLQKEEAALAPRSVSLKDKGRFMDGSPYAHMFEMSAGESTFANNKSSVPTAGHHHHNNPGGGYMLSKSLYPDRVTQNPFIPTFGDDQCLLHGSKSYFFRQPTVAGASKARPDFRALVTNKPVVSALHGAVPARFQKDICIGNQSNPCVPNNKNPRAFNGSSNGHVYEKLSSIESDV
Experimental: Activation of the NR2A or NR2B subtype of NMDA receptor with glutamate as an agonist and glycine co-agonist on these cells results in calcium influx, which can be monitored with fluorescent indicator Fluo-4.
For experiments, the cells were seeded onto poly-D-lysine-coated 96-well black plates with clear bottom (Corning) at a density of ˜50,000 cells/well. After overnight culture, the growth medium was removed from the wells and the cells were incubated at 37° C. for 60 minutes in Hanks buffer containing 4 μM fluo-4-AM (Invitrogen) and 0.1% bovine serum albumin (BSA). After dye-loading, the cells were washed three times with Hanks buffer and incubated for 10 minutes at room temperature with various concentrations of test compounds prepared in Hanks buffer with 0.1% BSA. The cell plates were placed onto an FDSS Cell fluorescence reader (Hamamatsu). After 20 seconds of reading background fluorescence, agonist glutamate at final 100 µM and co-agonist glycine at final 50 μM were added to the cells to activate the receptor, and the resulting fluorescence changes were recorded and quantified. Based on the changes in fluorescence intensity, the pharmacological effect of test compounds was analyzed and the IC50 values derived from a non-linear least squares fitting of the concentration-dependent response to a standard logistic equation using Prism (Graphpad Software, Inc.): Amplitude=Max Amplitude/(1+(IC50/[antagonist])^n).

[3] = molecular target: native rat brain NR2B receptors (Rattus norvegicus (Rat), UniProt P35439+Q00960); assay: NR2B radioligand binding assay in rat brain using [3H] (E)-N1-(2-methoxybenzyl)-cinnamidine; conditions: rat brain NR2B receptors; mean of replicates; read-out: Arithmetic Mean Ki
native rat brain NR2B receptors, sequence (Q00960 27-1482, other chains not shown): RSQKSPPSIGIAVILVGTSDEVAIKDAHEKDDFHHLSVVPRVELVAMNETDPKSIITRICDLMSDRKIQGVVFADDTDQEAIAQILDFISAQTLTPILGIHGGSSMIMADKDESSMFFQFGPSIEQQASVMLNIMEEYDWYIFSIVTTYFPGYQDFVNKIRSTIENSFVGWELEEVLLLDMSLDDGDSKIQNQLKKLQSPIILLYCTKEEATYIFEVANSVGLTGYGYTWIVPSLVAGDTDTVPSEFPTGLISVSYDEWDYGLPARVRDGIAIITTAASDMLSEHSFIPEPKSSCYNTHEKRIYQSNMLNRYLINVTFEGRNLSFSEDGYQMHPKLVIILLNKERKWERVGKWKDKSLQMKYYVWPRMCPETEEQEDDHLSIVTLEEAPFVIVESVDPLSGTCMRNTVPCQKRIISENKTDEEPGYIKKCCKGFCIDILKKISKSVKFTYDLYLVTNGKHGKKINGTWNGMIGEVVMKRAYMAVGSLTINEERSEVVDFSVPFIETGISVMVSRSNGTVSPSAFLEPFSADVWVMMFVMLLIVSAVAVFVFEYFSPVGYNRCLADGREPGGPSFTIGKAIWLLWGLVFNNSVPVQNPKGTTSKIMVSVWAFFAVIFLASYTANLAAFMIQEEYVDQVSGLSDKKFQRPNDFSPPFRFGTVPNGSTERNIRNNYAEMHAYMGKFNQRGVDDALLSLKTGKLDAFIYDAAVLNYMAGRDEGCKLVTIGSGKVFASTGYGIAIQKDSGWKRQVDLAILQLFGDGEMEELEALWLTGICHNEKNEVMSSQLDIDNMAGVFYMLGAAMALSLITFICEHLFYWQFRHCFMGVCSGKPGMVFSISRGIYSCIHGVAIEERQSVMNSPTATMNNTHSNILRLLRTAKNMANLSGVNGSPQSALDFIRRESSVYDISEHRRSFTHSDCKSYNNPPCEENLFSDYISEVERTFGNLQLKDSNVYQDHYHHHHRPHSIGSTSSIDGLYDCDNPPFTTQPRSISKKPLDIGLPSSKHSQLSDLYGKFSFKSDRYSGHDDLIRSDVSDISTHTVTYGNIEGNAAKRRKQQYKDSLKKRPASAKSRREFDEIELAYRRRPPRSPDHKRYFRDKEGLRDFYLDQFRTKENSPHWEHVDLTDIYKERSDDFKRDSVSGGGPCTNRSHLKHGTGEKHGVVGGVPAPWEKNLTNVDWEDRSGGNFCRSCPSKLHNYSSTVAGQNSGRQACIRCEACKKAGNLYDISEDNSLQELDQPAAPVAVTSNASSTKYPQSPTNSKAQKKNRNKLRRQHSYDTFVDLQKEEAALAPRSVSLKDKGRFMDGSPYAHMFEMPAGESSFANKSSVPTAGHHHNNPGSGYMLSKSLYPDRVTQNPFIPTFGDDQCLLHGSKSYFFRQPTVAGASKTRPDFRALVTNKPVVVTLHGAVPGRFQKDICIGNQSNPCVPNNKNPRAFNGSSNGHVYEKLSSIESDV
Experimental: This example describes an NR2B receptor binding assay in rat brain using [^3H] […] The binding assay method was adapted from a previously described cellular human NR1a/NR2B cloned receptor assay (Kiss et al. Neurochem. Internatl. 2005, 46:453-464) to rat brain tissue. This assay serves as a selective measure of NR2B receptor binding activity in native rat brain receptors. Briefly, the brains of male Wistar rats were homogenized (Polytron) before centrifugation at 40,000×g for 15 minutes at 4° C. After 2 washes, the final pellet was homogenized and stored at −80° C. The protein concentration was determined by Bradford assay. [^3H] […] Non-specific binding was assessed in the presence of excess (10 μM) (E)-N1-(2-nethoxybenzyl)-cinnamidine.
Test compounds were solubilized at 10 mM in DMSO. Then the dilutions were performed with a constant solvent concentration (1% DMSO) in the assay. After incubation for 4.5 hours at room temperature, the assays were filtered on GF/3 filters pretreated with 0.3% (v/v) polyethylenimine (PEI) with a Packard system. The experiment was performed in duplicate (n=2).

[4] = system: wild type mice (male C57Bl/6); assay: Novelty Phobia Test in wild type mice; format: in vivo, mouse
Experimental: Animals. Male C57Bl/6 mice (18-30 g body weight; 6-8 weeks of age) were obtained from Slaccas (Shanghai, China) and allowed to acclimate to the animal facility for 7 days. Mice were group housed in plastic cages (no more than 4 animals per cage) on wood shavings with nesting material. All animals had free access to food (M01-F, Slaccas) and water. The animal facility was maintained under artificial lighting between 7:00 AM and 7:00 PM in a controlled ambient temperature of 22-24° C. and relative humidity between 50-60%.
Compound formulation. The test compounds were prepared in a vehicle of DMSO and HP-β-CD, and administered IP or PO. The test compounds or vehicle were administered at various times (10-20 minutes) before the behavioral test described below. Dosing volume was 10 mL/kg.
Testing procedure. The behavioral testing apparatus was a rectangular black Plexiglas, 2-chambered box, with no top or bottom (50 cm long, 26 cm wide and 15 cm tall) and allowed for the simultaneous testing of 2 mice. The box was placed on a laboratory bench. The chambers of the testing box were cleaned and fresh paper chip bedding was added between tests. Mice were brought to the experiment room in their home cages on the day of testing. Behavioral tests were conducted between 10:00 AM and 1:00 PM in dim light. After drug administration, a mouse was placed into a test chamber and allowed to explore for 10 minutes. After this habituation period, a novel object (e.g., a toy ball of 3 cm in diameter with spikes) was introduced to the center of the chamber for 5 minutes. For the entire 15-minute test period, video was recorded for offline analysis with Any-maze Video Tracking software (Stoelting Co., Wood Dale, Ill.). The total distance traveled during the entire 15 minutes and the number of bouts that each mouse touched the novel object during the last 5 minutes were measured.
Statistical analyses. Data are presented as means and SEMs. Data were analyzed using one-way analysis of variance (ANOVA; Prism, GraphPad Software Inc., San Diego, Calif.), followed by the post-hoc Dunnett's test to compare test compound-treated groups with the vehicle control. A p value<0.05 was considered significant.

[5] = molecular target: CYP2D6 (Homo sapiens (Human), UniProt P10635); assay: CYP P450 enzyme inhibition in pooled human liver microsomes (dextromethorphan probe); format: in vitro ADME; conditions: Table 1.4B
CYP2D6, sequence (P10635 whole entry): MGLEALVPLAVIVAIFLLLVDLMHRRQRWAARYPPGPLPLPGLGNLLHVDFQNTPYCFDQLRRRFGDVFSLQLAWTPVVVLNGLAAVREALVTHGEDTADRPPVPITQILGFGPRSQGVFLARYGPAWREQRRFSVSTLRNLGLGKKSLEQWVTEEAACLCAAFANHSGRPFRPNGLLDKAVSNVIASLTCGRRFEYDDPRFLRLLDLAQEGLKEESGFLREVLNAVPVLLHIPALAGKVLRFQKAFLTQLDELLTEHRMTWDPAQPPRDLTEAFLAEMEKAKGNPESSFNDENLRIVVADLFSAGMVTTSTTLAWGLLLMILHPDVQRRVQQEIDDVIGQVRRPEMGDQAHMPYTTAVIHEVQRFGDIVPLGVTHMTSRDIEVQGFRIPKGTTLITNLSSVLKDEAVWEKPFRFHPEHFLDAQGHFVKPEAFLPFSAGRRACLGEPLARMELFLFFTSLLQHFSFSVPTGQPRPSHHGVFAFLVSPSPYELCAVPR
Experimental: Test compound concentration-dependent response studies were performed in triplicate.

[6] = molecular target: hERG channel (Homo sapiens (Human), UniProt Q12809); assay: hERG channel inhibition, whole cell patch clamp in HEK293 cells; format: cell-based; conditions: for IC50: Table 1.3B
hERG channel, sequence (Q12809 whole entry): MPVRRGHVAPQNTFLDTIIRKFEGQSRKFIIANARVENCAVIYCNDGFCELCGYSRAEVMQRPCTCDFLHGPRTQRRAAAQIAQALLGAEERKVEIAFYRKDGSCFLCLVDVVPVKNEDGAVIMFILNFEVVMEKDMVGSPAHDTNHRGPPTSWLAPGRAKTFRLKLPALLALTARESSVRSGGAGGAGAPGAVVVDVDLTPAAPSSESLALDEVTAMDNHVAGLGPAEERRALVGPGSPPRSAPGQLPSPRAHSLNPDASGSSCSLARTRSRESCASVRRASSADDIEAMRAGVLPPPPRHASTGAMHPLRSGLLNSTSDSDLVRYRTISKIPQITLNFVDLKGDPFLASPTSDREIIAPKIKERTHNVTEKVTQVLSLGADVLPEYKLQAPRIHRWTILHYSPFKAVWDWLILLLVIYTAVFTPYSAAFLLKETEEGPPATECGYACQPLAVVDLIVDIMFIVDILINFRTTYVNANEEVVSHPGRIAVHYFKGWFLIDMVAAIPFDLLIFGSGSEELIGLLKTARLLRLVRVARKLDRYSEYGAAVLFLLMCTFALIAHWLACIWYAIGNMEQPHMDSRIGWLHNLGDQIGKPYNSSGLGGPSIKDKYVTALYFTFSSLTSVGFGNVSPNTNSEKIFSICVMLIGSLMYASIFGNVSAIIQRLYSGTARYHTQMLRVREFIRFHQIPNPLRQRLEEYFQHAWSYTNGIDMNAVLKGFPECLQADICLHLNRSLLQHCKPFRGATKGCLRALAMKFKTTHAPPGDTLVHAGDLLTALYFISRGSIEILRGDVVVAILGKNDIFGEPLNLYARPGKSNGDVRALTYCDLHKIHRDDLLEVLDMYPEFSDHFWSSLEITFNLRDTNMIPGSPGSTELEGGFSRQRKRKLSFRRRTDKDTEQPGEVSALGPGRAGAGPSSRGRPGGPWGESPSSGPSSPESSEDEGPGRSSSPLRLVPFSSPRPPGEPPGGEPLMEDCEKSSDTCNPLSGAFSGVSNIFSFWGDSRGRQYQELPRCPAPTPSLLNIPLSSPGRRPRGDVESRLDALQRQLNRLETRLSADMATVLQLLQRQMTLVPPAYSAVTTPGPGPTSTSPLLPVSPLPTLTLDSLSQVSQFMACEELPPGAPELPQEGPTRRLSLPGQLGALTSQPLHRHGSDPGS

[7] = Table 1.1A, read-out: NR2B IC50
[8] = Table 1.3A, read-out: hNR2B IC50
[9] = Table 1.4A, read-out: NR2B IC50

SMILES: FC(F)(F)c1ccc(C(F)(F)CN2CCC(Nc3ncnc4[nH]ccc34)CC2)nc1 [C-5^A′]
change in vivo at 3 mg/kg [1]: 2%
change in vivo at 10 mg/kg [1]: -50%
change in vivo at 30 mg/kg ([1]; 30 mg/kg): -98%
IC50 [2, 7]: 30 nM
IC50 [2, 8]: 30 nM
IC50 [2, 9]: 30 nM
Ki [3]: 15.7 nM
bouts of nose touching of the novel object, efficacy ([4]; IP (C-11 also PO)): not efficacious
change in vivo at 10 mg/kg ([4]; Mus musculus, ip, 10 min, IP, 10 mg/kg, pre-test time 10 min, read-out: Percent Change in Novel Object Number of Nose Touches relative to vehicle control): 70.8%
change in vivo at 30 mg/kg ([4]; Mus musculus, ip, 10 min, IP, pre-test time 10 min, read-out: Percent Change in Novel Object Number of Nose Touches relative to vehicle control): 42.4%
change in vivo at 60 mg/kg ([4]; Mus musculus, ip, 10 min, IP, 60 mg/kg, pre-test time 10 min, read-out: Percent Change in Novel Object Number of Nose Touches relative to vehicle control): -36.9%

SMILES: O=C(OCc1ccc(F)cc1)N1CC[C@H](CNc2ncccn2)C(F)(F)C1 [E1-22.4^B′, (R)-4-fluorobenzyl 3,3-difluoro-4-((pyrimidin-2-ylamino)methyl)piperidine-1-carboxylate methanesulfonate]
change in vivo at 0.3 mg/kg ([1]; 0.3 mg/kg): -6%
change in vivo at 1.78 mg/kg ([1]; 1.78 mg/kg): -97%
change in vivo at 3 mg/kg [1]: -99%
IC50 [5]: > 50000 nM
IC50 [6]: 39000 nM

SMILES: O=C(OCc1ccc(F)cc1)N1CC[C@H](CNc2cccnn2)C(F)(F)C1 [E1-24.4^B′, (R)-4-fluorobenzyl 3,3-difluoro-4-((pyridazin-3-ylamino)methyl)piperidine-1-carboxylate methanesulfonate]
Ki [3]: 10 nM

SMILES: O=C(OCc1ccc(C(F)F)cc1)N1CC[C@H](CNc2cccnn2)C(F)(F)C1 [E1-24.6^B′, (R)-4-(difluoromethyl)benzyl 3,3-difluoro-4-((pyridazin-3-ylamino)methyl)piperidine-1-carboxylate hydrochloride]
Ki [3]: 4.7 nM

SMILES: O=C(OCc1ccc(F)cc1)N1CC[C@H](CNc2ccncn2)C(F)(F)C1 [E1-37.4^B′, (R)-4-fluorobenzyl 3,3-difluoro-4-((pyrimidin-4-ylamino)methyl)piperidine-1-carboxylate mesylate]
Ki [3]: 4.7 nM

SMILES: O=C(OCc1ccc(F)cc1)N1CC[C@H](CNc2ccncc2F)C(F)(F)C1 [E1-38.10^B′, (R)-4-fluorobenzyl 3,3-difluoro-4-(((3-fluoropyridin-4-yl)amino)methyl)piperidine-1-carboxylate mesylate]
Ki [3]: 3.8 nM

SMILES: Cc1ccc(COC(=O)N2CC[C@@H](CNc3nccn4cnnc34)C(F)(F)C2)cc1 [E2-1.2^B′]
inhibition at 5 min, 10 µM ([6]; human, HEK293 cells stably expressing hERG channel, pH 7.35, 10 μM): 22%
IC50 ([2]; Table 1.1B, read-out: NR2B IC50): 156 nM
IC50 ([2]; Table 1.3B, read-out: NR2B IC50): 156 nM
IC50 ([2]; Table 1.4B, read-out: NR2B IC50): 156 nM
Ki [3]: 84.2 nM

Further lines, with some results ahead:

IC50 [2, 7]: 45 nM
IC50 [2, 8]: 45 nM
IC50 [2, 9]: 45 nM
Ki [3]: 31.6 nM
SMILES: FC(F)(F)c1ccc(C(F)(F)CN2CCC(Nc3ncnc4[nH]ccc34)CC2)cn1 [C-127^A′]
change in vivo at 1 mg/kg [1]: 15%
change in vivo at 3 mg/kg [1]: -27%
change in vivo at 10 mg/kg [1]: -98%
change in vivo at 20 mg/kg ([4]; Mus musculus, ip, 0.25 h, IP, 20 mg/kg, pre-test time 15 min, read-out: Percent Change in Novel Object Number of Nose Touches relative to vehicle control): 120%
change in vivo at 30 mg/kg ([4]; Mus musculus, ip, 0.25 h, IP, pre-test time 15 min, read-out: Percent Change in Novel Object Number of Nose Touches relative to vehicle control): 160%
pattern of the dose-response function for bouts of nose touching ([4]; mouse, in vivo): dose-dependent increases

Ki [3]: 3.4 nM
SMILES: Cc1ccc(COC(=O)N2CC[C@H](CNc3ncc(C)cn3)C(F)(F)C2)cc1 [E1-22.26^B′, (R)-4-methylbenzyl 3,3-difluoro-4-(((5-methylpyrimidin-2-yl)amino)methyl)piperidine-1-carboxylate mesylate]
change in vivo at 1 mg/kg [1]: -12%
change in vivo at 3 mg/kg [1]: -23%
change in vivo at 10 mg/kg [1]: -96%

IC50 [5]: 18000 nM
SMILES: Cc1ccc(COC(=O)N2CC[C@H](CNc3ccccn3)C(F)(F)C2)cc1 [E1-23.2^B′, (R)-4-methylbenzyl 3,3-difluoro-4-((pyridin-2-ylamino)methyl)piperidine-1-carboxylate]
IC50 [6]: 5600 nM

IC50 [5]: 200 nM
SMILES: Cc1ccc(COC(=O)N2CC[C@H](CNc3ccncn3)C(F)(F)C2)cc1 [E1-37.2^B′, (R)-4-methylbenzyl 3,3-difluoro-4-((pyrimidin-4-ylamino)methyl)piperidine-1-carboxylate methanesulfonate]

Ki [3]: 3.9 nM
SMILES: O=C(OCc1ccc(C(F)F)cc1)N1CC[C@H](CNc2ccncn2)C(F)(F)C1 [E1-37.6^B′, (R)-4-(difluoromethyl)benzyl 3,3-difluoro-4-((pyrimidin-4-ylamino)methyl)piperidine-1-carboxylate hydrochloride]

IC50 [5]: > 50000 nM
SMILES: O=C(OC1Cc2ccccc2C1)N1CC[C@H](CNc2ncccn2)C(F)(F)C1 [III-E1-22.1^B′, (R)-2,3-dihydro-1H-inden-2-yl 3,3-difluoro-4-((pyrimidin-2-ylamino)methyl)piperidine-1-carboxylate methanesulfonate]
IC50 [6]: 35000 nM
